Measured values reported in patent US9108937B2 (Merck Sharp & Dohme Corp., priority 2010, dated 2015).

Molecular target: T1, human mGluR2 (Homo sapiens, UniProt Q14416)
T1 construct: expressed in transfected cells
Experiment: FLIPR Ca2+ mobilization assay, potentiation of glutamate response
Type: cell-based
Conditions: CHO dhfr- cells expressing human mGluR2 and Gα16; potentiation after EC20 glutamate (900 nM); read-out: Representative FLIPR EC50 Values: IC50
Procedure: Inhibition constants are determined as follows. The compounds of the present invention may be tested in a fluorescence laser imaging plate reader (FLIPR) based assay. This assay is a common functional assay to monitor Ca^2+ mobilization in whole cells expressing recombinant receptor coupled with a promiscuous G-protein. CHO dhfr− cells stably expressing recombinant human mGluR2 and Gα16 loaded with Fluo-4 AM (Invitrogen, Carlsbad Calif.) are treated with dose responses of compounds and the Ca^2+ response is monitored on a FLIPR384 (Molecular Devices, Sunnydale Calif.) for agonist activity. The potentiation response is monitored after a subsequent addition of an EC20 concentration of glutamate (900 nM). The maximum calcium response at each concentration of compound for agonist or potentiation are plotted as dose responses and the curves are fitted with a four parameters logistic equation giving EC50 and Hill coefficient using the iterative non linear curve fitting software program.

T1 sequence (Q14416 19-872): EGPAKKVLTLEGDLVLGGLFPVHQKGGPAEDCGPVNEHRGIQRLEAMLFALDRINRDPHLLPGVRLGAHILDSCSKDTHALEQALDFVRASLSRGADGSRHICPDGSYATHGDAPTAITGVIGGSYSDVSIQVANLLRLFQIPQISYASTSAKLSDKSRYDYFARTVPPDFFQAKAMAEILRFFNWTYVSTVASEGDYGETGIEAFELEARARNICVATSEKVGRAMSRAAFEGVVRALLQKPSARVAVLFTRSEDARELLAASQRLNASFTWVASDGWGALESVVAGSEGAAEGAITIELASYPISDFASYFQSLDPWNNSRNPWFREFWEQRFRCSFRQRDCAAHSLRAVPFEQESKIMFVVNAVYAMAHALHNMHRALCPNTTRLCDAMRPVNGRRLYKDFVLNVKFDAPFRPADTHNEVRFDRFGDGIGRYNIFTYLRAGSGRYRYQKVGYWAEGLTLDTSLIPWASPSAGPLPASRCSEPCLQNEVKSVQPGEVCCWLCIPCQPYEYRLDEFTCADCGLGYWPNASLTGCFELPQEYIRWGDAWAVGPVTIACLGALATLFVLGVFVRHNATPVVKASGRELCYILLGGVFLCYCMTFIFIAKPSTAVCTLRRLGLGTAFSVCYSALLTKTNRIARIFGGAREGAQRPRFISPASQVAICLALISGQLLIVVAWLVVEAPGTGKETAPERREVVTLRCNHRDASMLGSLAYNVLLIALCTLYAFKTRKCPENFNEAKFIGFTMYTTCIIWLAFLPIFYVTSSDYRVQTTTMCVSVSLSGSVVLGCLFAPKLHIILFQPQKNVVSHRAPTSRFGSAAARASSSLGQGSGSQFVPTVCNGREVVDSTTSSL

Compound | EC50
CN1c2cc(-c3cc(CN4CCc5onc(O)c5C4)ccc3C#N)ccc2N(CC2CC2(F)F)S1(=O)=O (stereo not drawn) [Compound 20-1, 2-{1-[(2,2-difluorocyclopropyl)methyl]-3-methyl-2,2-dioxido-1,3-dihydro-2,1,3-benzothiadiazol-5-yl}-4-[(3-hydroxy-6,7-dihydroisoxazolo[4,5-c]pyridin-5(4H)-yl)methyl]benzonitrile] | 0.8 nM
CN1c2cc(-c3cc(Oc4ccnc(C#N)c4)ccc3C#N)ccc2N(CC2CC2(F)F)S1(=O)=O (stereo not drawn) [Compound 12-4, 4-(4-cyano-3-{1-[(2,2-difluorocyclopropyl)methyl]-3-methyl-2,2-dioxido-1,3-dihydro-2,1,3-benzothiadiazol-5-yl}phenoxy) pyridine-2-carbonitrile] | 0.5 nM
CN1c2cc(-c3cc(C(C)(C)O)ccc3F)ccc2N(CC2CC2(F)F)S1(=O)=O (stereo not drawn) [Compound 17-2] | 22 nM
Cc1cccnc1-c1ccc2c(c1)N(C)S(=O)(=O)N2CC1CC1 [Compound 3-1, 1-(cyclopropylmethyl)-3-methyl-5-(3-methylpyridin-2-yl)-1,3-dihydro-2,1,3-benzothiadiazole 2,2-dioxide] | 490 nM
CN1c2cc(-c3cccc(N4CCS(=O)(=O)CC4)c3)ccc2N(CC2CCC2)S1(=O)=O [Compound 8-1, 1-(cyclobutylmethyl)-5-[3-(1,1-dioxidothiomorpholin-4-yl)phenyl]-3-methyl-1,3-dihydro-2,1,3-benzothiadiazole 2,2-dioxide] | 110 nM
CN1c2cc(-c3ccccc3C#N)ccc2N(CC2CC2)S1(=O)=O [Compound 1-5, 2-[1-(cyclopropylmethyl)-3-methyl-2,2-dioxido-1,3-dihydro-2,1,3-benzothiadiazol-5-yl]benzonitrile] | 5 nM

Results, then the compound that gave them:

EC50 | Compound
25 nM | Cc1ccc(C(C)(C)O)cc1-c1ccc2c(n1)N(C)S(=O)(=O)N2CC1CC1 [Compound 38-3, 2-{3-[1-(cyclopropylmethyl)-3-methyl-2,2-dioxido-1,3-dihydro [1,2,5]thiadiazolo[3,4-b]pyridin-5-yl]-4-methylphenyl}propan-2-ol]
8 nM | Cc1ccc(CN2CCN(C(=O)[C@@H](C)O)CC2)cc1-c1ccc2c(n1)N(C)S(=O)(=O)N2CC1CC1(F)F (stereo partly drawn) [Compound 43-3, (2R)-1-[4-(3-{1-[(2,2-difluorocyclopropyl)methyl]-3-methyl-2,2-dioxido-1,3-dihydro[1,2,5]thiadiazolo[3,4-b]pyridin-5-yl}-4-methylbenzyl)piperazin-1-yl]-2-hydroxypropan-1-one]
9 nM | CN1c2nc(-c3cccc(CN4CCS(=O)(=O)CC4)c3F)ccc2N(CC2CC2(F)F)S1(=O)=O (stereo not drawn) [Compound 42-3, 1-[(2,2-difluorocyclopropyl)methyl]-5-{3-[(1,1-dioxidothiomorpholin-4-yl)methyl]-2-fluorophenyl}-3-methyl-1,3-dihydro [1,2,5]thiadiazolo[3,4-b]pyridine 2,2-dioxide]
3 nM | CN1c2nc(-c3cc(Oc4ccnc(C#N)c4)ccc3C#N)ccc2N(CC2CC2(F)F)S1(=O)=O (stereo not drawn) [Compound 36-2, 4-(4-cyano-3-{1-[(2,2-difluorocyclopropyl)methyl]-3-methyl-2,2-dioxido-1,3-dihydro[1,2,5]thiadiazolo[3,4-b]pyridin-5-yl}phenoxy)pyridine-2-carbonitrile]
140 nM | CN1c2nc(-c3ccc(N4CCN(S(C)(=O)=O)CC4)cc3)ccc2N(CC2CC2(F)F)S1(=O)=O (stereo not drawn) [Compound 32-2, 1-[(2,2-difluorocyclopropyl)methyl]-3-methyl-5-{4-[4-(methylsulfonyl)piperazin-1-yl]phenyl}-1,3-dihydro[1,2,5]thiadiazolo[3,4-b]pyridine 2,2-dioxide]
24 nM | CN1c2cc(-c3cccc(CN4CCN(S(C)(=O)=O)CC4)n3)ccc2N(CC2CC2(F)F)S1(=O)=O (stereo not drawn) [Compound 25-2]
9 nM | CN1c2nc(-c3ccccc3C#N)ccc2N(CC(C)(C)C)S1(=O)=O [Compound 30-2, 2-[1-(2,2-dimethylpropyl)-3-methyl-2,2-dioxido-1,3-dihydro[1,2,5]thiadiazolo[3,4-b]pyridin-5-yl]benzonitrile]
11 nM | CC(=O)N1CCN(Cc2ccc(C)c(-c3ccc4c(n3)N(C)S(=O)(=O)N4CC3CC3(F)F)c2)CC1 (stereo not drawn) [Compound 39-2, 1-[4-(3-{1-[(2,2-difluorocyclopropyl)methyl]-3-methyl-2,2-dioxido-1,3-dihydro[1,2,5]thiadiazolo[3,4-b]pyridin-5-yl}-4-methylbenzyl)piperazin-1-yl]ethanone]
130 nM | CN1c2cc(-c3cccc(CNc4ncccc4C#N)c3)ccc2N(CC2CC2)S1(=O)=O [Compound 24-1, 2-({3-[1-(cyclopropylmethyl)-3-methyl-2,2-dioxido-1,3-dihydro-2,1,3-benzothiadiazol-5-yl]benzyl}amino)nicotinonitrile]
